Values quoted from earlier work, collected in patent US9215889B2, “Steviol glycoside” (MORITA KAGAKU KOGYO CO., LTD., priority 2008, dated 2015).

Details: for taste quality (in words): background comparison of ST and RA

SMILES	taste quality (in words)	degree of sweetness (relative to sucrose)
C=C1C[C@@]23CC[C@H]4[C@@](C)(CCC[C@@]4(C)C(=O)O[C@@H]4O[C@H](CO)[C@@H](O)[C@H](O)[C@H]4O)[C@@H]2CC[C@]1(O[C@@H]1O[C@H](CO)[C@@H](O)[C@H](O[C@@H]2O[C@H](CO)[C@@H](O)[C@H](O)[C@H]2O)[C@H]1O[C@@H]1O[C@H](CO)[C@@H](O)[C@H](O)[C@H]1O)C3 [RA, Rebaudioside A]	good quality of sweetness	–
C=C1C[C@@]23CC[C@H]4[C@@](C)(CCC[C@@]4(C)C(=O)O[C@@H]4O[C@H](CO)[C@@H](O)[C@H](O)[C@H]4O)[C@@H]2CC[C@]1(O[C@@H]1O[C@H](CO)[C@@H](O)[C@H](O)[C@H]1O[C@@H]1O[C@H](CO)[C@@H](O)[C@H](O)[C@H]1O)C3 [ST, Stevioside]	an unpleasant taste of bitterness remains in the mouth	300 times that of sucrose
